Assay results reported in article PMC8310277 (Viruses, 2021).
Where a SMILES comes first, the peptide text is derived from it. Bridges are numbered along the chain shown (N, C = ends).

How the values were obtained:
[1] = test system: pseudotyped virus expressing SARS-CoV-2 S protein from the P.1 variant; format: cell-based
[2] = test system: pseudotyped virus expressing SARS-CoV-2 S protein from the B.1.1.7 variant; format: cell-based

`CC[C@H](C)[C@@H]1NC(=O)[C@H](CCC(=O)O)NC(=O)[C@@H]2CSSC[C@@H]3NC(=O)[C@H](Cc4ccc(O)cc4)NC(=O)[C@@H](NC(=O)[C@@H](NC(=O)[C@H](C)N)[C@@H](C)O)CSSC[C@@H](C(=O)N[C@@H](CCCNC(=N)N)C(=O)O)NC(=O)[C@H](CSSC[C@H](NC(=O)[C@H](CCCNC(=N)N)NC(=O)CNC(=O)[C@H]([C@@H](C)O)NC(=O)[C@H](CCCNC(=N)N)NC3=O)C(=O)N[C@@H](C)C(=O)N[C@@H]([C@@H](C)O)C(=O)N[C@@H](CCCNC(=N)N)C(=O)N[C@@H](CCC(=O)O)C(=O)N[C@@H](CO)C(=O)N[C@@H](CC(C)C)C(=O)N[C@@H](CO)C(=O)NCC(=O)N[C@@H](C(C)C)C(=O)N2)NC(=O)[C@H](CC(C)C)NC(=O)[C@H](CCCNC(=N)N)NC(=O)[C@H](Cc2ccc(O)cc2)NC(=O)[C@H](CC(C)C)NC(=O)[C@H](CCCNC(=N)N)NC(=O)CNC(=O)[C@H](CO)NC1=O` [HD5] (H-ATCYCRTGRCATRESLSGVCEISGRLYRLCCR-OH; disulfide 3-31, 5-20, 10-30 (inferred); N-terminus and C-terminus assumed) was tested, and the “effect on P.1 variant (in words)” value [1] was “suppressed the P.1 variant in a dose-dependent manner”, the “suppression of P1 infection” value ([1]; 50 μg/mL) was 72% and the “effect on B.1.1.7 variant (in words)” value [2] was “moderate antiviral activity”. For the same compound, the “inhibition of B.1.1.7 infection” value ([2]; 50 μg/mL) was 32%.
